Experimental data published in ChEMBL document CHEMBL4373747 (ACS Med Chem Lett, 2020).

Columns and labels:
MV4-11 [1] = assay: Induction of apoptosis in human MV4-11 cells assessed as viable cells at 4 uM incubated for 18 hrs by annexin V FITC and PI based flow cytometry (reference value: 53.01 to 53.07 %); type: functional
[2] = Oral bioavailability in Balb/c nude mouse at 50 mg/kg measured upto 24 hrs by LC/MS/MS analysis; type: ADME, organism-based; conditions: in vivo
MV4-11 [3] = assay: Cytotoxicity against human MV4-11 cells assessed as reduction in cell viability incubated for 72 hrs by cell-titer blue assay; type: functional, cell-based; conditions: MV4-11, 72 h
MV4-11 [4] = assay: Induction of apoptosis in human MV4-11 cells assessed as early apoptotic cells at 4 uM incubated for 18 hrs by annexin V FITC and PI based flow cytometry (reference value: 19.46 to 22.17 %); type: functional
MV4-11 [5] = assay: Induction of apoptosis in human MV4-11 cells assessed as viable cells at 0.25 uM incubated for 18 hrs by annexin V FITC and PI based flow cytometry (reference value: 53.01 to 53.07 %); type: functional
MV4-11 [6] = assay: Induction of apoptosis in human MV4-11 cells assessed as early apoptotic cells at 0.5 uM incubated for 18 hrs by annexin V FITC and PI based flow cytometry (reference value: 19.46 to 22.17 %); type: functional
MV4-11 [7] = assay: Induction of apoptosis in human MV4-11 cells assessed as viable cells at 1 uM incubated for 18 hrs by annexin V FITC and PI based flow cytometry (reference value: 53.01 to 53.07 %); type: functional
MV4-11 [8] = assay: Induction of apoptosis in human MV4-11 cells assessed as late apoptotic cells at 1 uM incubated for 18 hrs by annexin V FITC and PI based flow cytometry (reference value: 9.2 to 9.63 %); type: functional
MV4-11 [9] = assay: Induction of apoptosis in human MV4-11 cells assessed as viable cells at 0.5 uM incubated for 18 hrs by annexin V FITC and PI based flow cytometry (reference value: 53.01 to 53.07 %); type: functional
MV4-11 [10] = assay: Induction of apoptosis in human MV4-11 cells assessed as early apoptotic cells at 0.25 uM incubated for 18 hrs by annexin V FITC and PI based flow cytometry (reference value: 19.46 to 22.17 %); type: functional
MV4-11 [11] = assay: Induction of apoptosis in human MV4-11 cells assessed as late apoptotic cells at 2 uM incubated for 18 hrs by annexin V FITC and PI based flow cytometry (reference value: 9.2 to 9.63 %); type: functional
MV4-11 [12] = assay: Induction of apoptosis in human MV4-11 cells assessed as early apoptotic cells at 1 uM incubated for 18 hrs by annexin V FITC and PI based flow cytometry (reference value: 19.46 to 22.17 %); type: functional
MV4-11 [13] = assay: Induction of apoptosis in human MV4-11 cells assessed as late apoptotic cells at 0.5 uM incubated for 18 hrs by annexin V FITC and PI based flow cytometry (reference value: 9.2 to 9.63 %); type: functional
MV4-11 [14] = assay: Induction of apoptosis in human MV4-11 cells assessed as viable cells at 2 uM incubated for 18 hrs by annexin V FITC and PI based flow cytometry (reference value: 53.01 to 53.07 %); type: functional
MV4-11 [15] = assay: Induction of apoptosis in human MV4-11 cells assessed as late apoptotic cells incubated for 18 hrs by annexin V FITC and PI based flow cytometry; type: functional, cell-based
MV4-11 [16] = assay: Induction of apoptosis in human MV4-11 cells assessed as late apoptotic cells at 4 uM incubated for 18 hrs by annexin V FITC and PI based flow cytometry (reference value: 9.2 to 9.63 %); type: functional
MV4-11 [17] = assay: Induction of apoptosis in human MV4-11 cells assessed as late apoptotic cells at 0.25 uM incubated for 18 hrs by annexin V FITC and PI based flow cytometry (reference value: 9.2 to 9.63 %); type: functional
MV4-11 [18] = assay: Induction of apoptosis in human MV4-11 cells assessed as early apoptotic cells at 2 uM incubated for 18 hrs by annexin V FITC and PI based flow cytometry (reference value: 19.46 to 22.17 %); type: functional

**Q.** What does the source list for `O=C(CCCCCCC(=O)Nc1ccccc1)NO` [VORINOSTAT]?
**A.** Activity (MV4-11 [1]): 20.37%; bioavailability [2]: 8%; IC50 (MV4-11 [3]): 310 nM; Activity (MV4-11 [4]): 35.44%; Activity (MV4-11 [5]): 51.83%; Activity (MV4-11 [6]): 15.37%; Activity (MV4-11 [7]): 28.82%; Activity (MV4-11 [8]): 27.29%; Activity (MV4-11 [9]): 38.87%; Activity (MV4-11 [10]): 19.79%; Activity (MV4-11 [11]): 30.07%; Activity (MV4-11 [12]): 24.22%; Activity (MV4-11 [13]): 11.46%; Activity (MV4-11 [14]): 24.13%; Activity (MV4-11 [15]): Dose-dependent effect; Activity (MV4-11 [16]): 26.52%; Activity (MV4-11 [17]): 12.72%; Activity (MV4-11 [18]): 35.72%
